According to patent US10206937B2, “Boronic acid derivatives and therapeutic uses thereof” (Qpex Biopharma, Inc., priority 2014, dated 2019):
Values after ≈ are worked out from the molar mass of the structure shown. Read-outs that look alike come from different tables or passages of the source.

Assays:
[1] = test system: KP1004 (KPC-2, TEM-1, SHV-11); assay: Carbapenem potentiation against clinical isolate (MIC); type: cell-based, Klebsiella pneumoniae; details: antibiotic alone
[2] = test system: KP1064 (KPC-2, SHV-11, TEM-1); assay: as above; type: cell-based, Klebsiella pneumoniae; details: antibiotic alone
[3] = test system: KP1014 (VIM-1); assay: as above; type: cell-based, Klebsiella pneumoniae; details: antibiotic alone
[4] = test system: EA1019 (SHV-5, VIM-1); assay: as above; type: cell-based, Enterobacter aerogenes
[5] = test system: KP1084 (KPC-3, SHV-11, TEM-1); assay: as above; type: cell-based, Klebsiella pneumoniae; details: antibiotic alone
[6] = test system: KP1074 (KPC-3, SHV-11, TEM); assay: as above; type: cell-based, Klebsiella pneumoniae; details: antibiotic alone
[7] = test system: EC1064 (NDM-1, CMY-6, CTX-M-15); assay: as above; type: cell-based, Escherichia coli; details: antibiotic alone
[8] = test system: KP1054 (VIM-1, SHV-11); assay: as above; type: cell-based, Klebsiella pneumoniae; details: antibiotic alone
[9] = test system: AB1144 (NDM-1); assay: as above; type: cell-based, Acinetobacter baumannii
[10] = test system: KP1087 (KPC-2, CTX-M-15, SHV-11, TEM-1); assay: as above; type: cell-based; details: antibiotic alone
[11] = test system: KP1081 (NDM-1, TEM-1, SHV-11, CMY-6, CTX-M-15); assay: as above; type: cell-based; details: antibiotic alone
[12] = test system: KP1086 (TEM, SHV, CTX-M-15, OXA-48); assay: as above; type: cell-based, Klebsiella pneumoniae; details: antibiotic alone
[13] = test system: strains of Enterobacteriaceae overexpressing various carbapenemases (class A and B); assay: microbe, parasite or virus in culture; type: cell-based
Excerpt: Several strains simultaneously expressing both class A and class B carbapenemases, which were constructed using conjugation, were also included in the panel.

[14] = biological target: T1, VIM-1 (Pseudomonas aeruginosa, UniProt A0A0F7KYQ8); assay: biochemical; details: cleavage of nitrocefin (200 uM) by VIM-1 supernatant
T1 construct: made in house; host or cells: ECM6711 strain carrying pUCP24-VIM-1 plasmid; culture supernatant used unpurified

[15] = biological target: T2, NDM-1 (Klebsiella pneumoniae, UniProt C7C422); assay: biochemical
[16] = test system: ECM6703 (pUCP24-NDM-1); type: cell-based, E. coli
[17] = biological target: T2, NDM-1; assay: Inhibition of purified class B carbapenemase NDM-1 (Ki, imipenem substrate); type: biochemical
[18] = test system: clinical isolates expressing class A, B and D carbapenemases; assay: Carbapenem potentiation by Compound 1, whole panel of clinical isolates (MIC); type: cell-based; details: Compound 1 at fixed 5 μg/ml in the growth media; all the strains
Excerpt: The results are present in Table 8.

[19] = biological target: T3, purified class A, C and D enzymes (UniProt Q9F663); type: biochemical; details: read-out: Ki (KPC-2, NCF); purified KPC-2; nitrocefin reporter substrate
T3 construct: rows headed: Ki (KPC-2, NCF); other: purified KPC-2; nitrocefin reporter substrate

[20] = test system: ECM6711 (pUCP24-VIM-1); type: cell-based, E. coli
[21] = test system: ECM6704 (pUCP24); assay: microbe, parasite or virus in culture; type: cell-based, E. coli; details: Escherichia coli, read-out: Imipenem MIC Alone

T2 sequence (C7C422 29-270, looked up, species assumed): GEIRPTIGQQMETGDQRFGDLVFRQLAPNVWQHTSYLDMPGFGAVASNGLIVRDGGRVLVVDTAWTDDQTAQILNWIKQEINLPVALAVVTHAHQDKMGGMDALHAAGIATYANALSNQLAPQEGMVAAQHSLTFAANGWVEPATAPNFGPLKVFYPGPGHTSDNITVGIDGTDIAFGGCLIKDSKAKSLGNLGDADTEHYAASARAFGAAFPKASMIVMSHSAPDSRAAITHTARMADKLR

SMILES: C[C@@H](O)[C@H]1C(=O)N2C(C(=O)O)=C(S[C@@H]3CN[C@H](C(=O)N(C)C)C3)[C@H](C)[C@H]12 [Meropenem, reference compound]
- Carbapenem MIC Alone [1]: Y (MIC of 1 μg/mL to 10 μg/mL)
- Carbapenem MIC Alone [2]: Z (MIC of greater than 10 μg/mL)
- Carbapenem MIC Alone [3]: Y (MIC of 1 μg/mL to 10 μg/mL)
- Carbapenem MIC Alone ([4]; EA1019, antibiotic alone): Z (MIC of greater than 10 μg/mL)
- Carbapenem MIC Alone [5]: Z (MIC of greater than 10 μg/mL)
- Carbapenem MIC Alone [6]: Z (MIC of greater than 10 μg/mL)
- Carbapenem MIC Alone [7]: Z (MIC of greater than 10 μg/mL)
- Carbapenem MIC Alone [8]: Z (MIC of greater than 10 μg/mL)
- Carbapenem MIC Alone ([9]; AB1144, antibiotic alone): Z (MIC of greater than 10 μg/mL)
- Carbapenem MIC Alone [10]: Z (MIC of greater than 10 μg/mL)
- Carbapenem MIC Alone [11]: Z (MIC of greater than 10 μg/mL)
- Carbapenem MIC Alone [12]: Z (MIC of greater than 10 μg/mL)
- MIC ([13]; Enterobacter cloacae, strain ECL1026, Enterobacter cloacae (KPC), carbapenem alone or + Compound 14 at fixed 4 μg/ml, read-out: MIC): 1 to 10 µg/mL
- MIC ([13]; Enterobacter cloacae, strain ECL1036, Enterobacter cloacae (KPC), carbapenem alone or + Compound 14 at fixed 4 μg/ml, read-out: MIC): 1 to 10 µg/mL
- MIC ([13]; Enterobacter cloacae, strain ECL1045, Enterobacter cloacae (VIM-1), carbapenem alone or + Compound 14 at fixed 4 μg/ml, read-out: MIC): 1 to 10 µg/mL
- MIC ([13]; Enterobacter cloacae, strain ECL1055, Enterobacter cloacae (KPC), carbapenem alone or + Compound 14 at fixed 4 μg/ml, read-out: MIC): 1 to 10 µg/mL
- MIC ([13]; Enterobacter cloacae, strain ECL1057, Enterobacter cloacae (NDM-1, TEM-1, CTX-M-15), carbapenem alone or + Compound 14 at fixed 4 μg/ml, read-out: MIC): > 10 µg/mL
- MIC ([13]; Enterobacter cloacae, strain ECL1082, Enterobacter cloacae (VIM-1), carbapenem alone or + Compound 14 at fixed 4 μg/ml, read-out: MIC): 1 to 10 µg/mL
- MIC ([13]; Enterobacter cloacae, strain ECLM1013, Enterobacter cloacae (NDM, KPC), carbapenem alone or + Compound 14 at fixed 4 μg/ml, read-out: MIC): > 10 µg/mL
- MIC ([13]; Enterobacter cloacae, strain ECLM1014, Enterobacter cloacae (NDM, KPC), carbapenem alone or + Compound 14 at fixed 4 μg/ml, read-out: MIC): > 10 µg/mL
- MIC ([13]; Enterobacter cloacae, strain ECLM1015, Enterobacter cloacae (NDM, KPC), carbapenem alone or + Compound 14 at fixed 4 μg/ml, read-out: MIC): > 10 µg/mL
- MIC ([13]; Enterobacter cloacae, strain ECLM1016, Enterobacter cloacae (NDM, KPC), carbapenem alone or + Compound 14 at fixed 4 μg/ml, read-out: MIC): > 10 µg/mL
- MIC ([13]; Enterobacter cloacae, strain ECLM1017, Enterobacter cloacae (VIM, KPC), carbapenem alone or + Compound 14 at fixed 4 μg/ml, read-out: MIC): > 10 µg/mL
- MIC ([13]; Enterobacter cloacae, strain ECLM1018, Enterobacter cloacae (VIM, KPC), carbapenem alone or + Compound 14 at fixed 4 μg/ml, read-out: MIC): > 10 µg/mL
- MIC ([13]; Enterobacter cloacae, strain ECLM1019, Enterobacter cloacae (VIM, KPC), carbapenem alone or + Compound 14 at fixed 4 μg/ml, read-out: MIC): > 10 µg/mL
- MIC ([13]; Escherichia coli, strain EC1064, Escherichia coli (NDM-1, CMY-6, CTX-M-15), carbapenem alone or + Compound 14 at fixed 4 μg/ml, read-out: MIC): > 10 µg/mL
- MIC ([13]; Escherichia coli, strain EC1068, Escherichia coli (VIM-1), carbapenem alone or + Compound 14 at fixed 4 μg/ml, read-out: MIC): > 10 µg/mL
- MIC ([13]; Klebsiella aerogenes, strain EA1019, Enterobacter aerogenes (SHV-5, VIM-1), carbapenem alone or + Compound 14 at fixed 4 μg/ml, read-out: MIC): > 10 µg/mL
- MIC ([13]; Klebsiella pneumoniae, strain KP1004, Klebsiella pneumoniae (KPC TEM SHV), carbapenem alone or + Compound 14 at fixed 4 μg/ml, read-out: MIC): > 10 µg/mL
- MIC ([13]; Klebsiella pneumoniae, strain KP1014, Klebsiella pneumoniae (Vim-1, TEM, SHV), carbapenem alone or + Compound 14 at fixed 4 μg/ml, read-out: MIC): > 10 µg/mL
- MIC ([13]; Klebsiella pneumoniae, strain KP1061, Klebsiella pneumoniae (KPC TEM SHV), carbapenem alone or + Compound 14 at fixed 4 μg/ml, read-out: MIC): 1 to 10 µg/mL
- MIC ([13]; Klebsiella pneumoniae, strain KP1064, Klebsiella pneumoniae (KPC TEM SHV), carbapenem alone or + Compound 14 at fixed 4 μg/ml, read-out: MIC): > 10 µg/mL
- MIC ([13]; Klebsiella pneumoniae, strain KP1070, Klebsiella pneumoniae (KPC TEM SHV), carbapenem alone or + Compound 14 at fixed 4 μg/ml, read-out: MIC): > 10 µg/mL
- MIC ([13]; Klebsiella pneumoniae, strain KP1084, Klebsiella pneumoniae (KPC-3, SHV-11, TEM-1), carbapenem alone or + Compound 14 at fixed 4 μg/ml, read-out: MIC): > 10 µg/mL
- MIC ([13]; Klebsiella pneumoniae, strain KP1097, Klebsiella pneumoniae (IMP-1 SHV), carbapenem alone or + Compound 14 at fixed 4 μg/ml, read-out: MIC): > 10 µg/mL
- MIC ([13]; Klebsiella pneumoniae, strain KP1098, Klebsiella pneumoniae (IMP-26 TEM SHV), carbapenem alone or + Compound 14 at fixed 4 μg/ml, read-out: MIC): > 10 µg/mL
- MIC ([13]; Klebsiella pneumoniae, strain KPM1097, Klebsiella pneumoniae (NDM, KPC), carbapenem alone or + Compound 14 at fixed 4 μg/ml, read-out: MIC): > 10 µg/mL
- MIC ([13]; Klebsiella pneumoniae, strain KPM1099, Klebsiella pneumoniae (NDM, KPC), carbapenem alone or + Compound 14 at fixed 4 μg/ml, read-out: MIC): > 10 µg/mL
- MIC ([13]; Klebsiella pneumoniae, strain KPM1107, Klebsiella pneumoniae (NDM, KPC), carbapenem alone or + Compound 14 at fixed 4 μg/ml, read-out: MIC): > 10 µg/mL
- MIC ([13]; Klebsiella pneumoniae, strain KPM1108, Klebsiella pneumoniae (NDM, KPC), carbapenem alone or + Compound 14 at fixed 4 μg/ml, read-out: MIC): > 10 µg/mL
- MIC ([13]; Klebsiella pneumoniae, strain KPM1123, Klebsiella pneumoniae (KPC-2 TEM SHV), carbapenem alone or + Compound 14 at fixed 4 μg/ml, read-out: MIC): > 10 µg/mL
- MIC ([13]; Klebsiella pneumoniae, strain KPM1344, Klebsiella pneumoniae (VIM-1), carbapenem alone or + Compound 14 at fixed 4 μg/ml, read-out: MIC): > 10 µg/mL
- MIC ([13]; Klebsiella pneumoniae, strain KPM1346, Klebsiella pneumoniae (NDM-1 TEM SHV CTX-M-15 CMY), carbapenem alone or + Compound 14 at fixed 4 μg/ml, read-out: MIC): > 10 µg/mL
- MIC ([13]; Klebsiella pneumoniae, strain KPM1347, Klebsiella pneumoniae (NDM-1 SHV CTX-M-15), carbapenem alone or + Compound 14 at fixed 4 μg/ml, read-out: MIC): > 10 µg/mL
- MIC ([13]; strain EC1065, Escherichai coli (IMP-1 CMY-2), carbapenem alone or + Compound 14 at fixed 4 μg/ml, read-out: MIC): 1 to 10 µg/mL

SMILES: O=C(O)c1cccc2c1OB(O)[C@@H](Sc1nncs1)C2 [Compound 1, (R)-3-(1,3,4-thiadiazol-2-ylthio)-2-hydroxy-3,4-dihydro-2H-benzo[e][1,2]oxaborinine-8-carboxylic acid]
- IC50 [14]: < 1000 nM
- Ki ([15]; Ki, Imipenem): 10 to 100 nM
- Ki ([15]; cleavage of biapenem (100 uM) by NDM-1, read-out: Ki, Biapenem): 10 to 100 nM
- Ki ([15]; cleavage of meropenem (100 uM) by NDM-1, read-out: Ki, Meropenem): 10 to 100 nM
- Ki ([15]; cleavage of tebipenem (100 uM) by NDM-1, read-out: Ki, Tebipenem): > 100 nM
- imipenem MIC in the presence of Compound 1 ([16]; NDM-1 producing strain, Compound 1 at fixed 4 μg/ml or 8 μg/ml): decreased to the level of the strain containing empty vector
- Ki [17]: 10 to 100 nM
- carbapenem MIC (biapenem, doripenem, imipenem, meropenem) [18]: significantly reduced
- Ki [19]: 100 to 1000 nM
- imipenem MIC in the presence of Compound 1 ([20]; VIM-1 producing strain, Compound 1 at fixed 4 μg/ml or 8 μg/ml): decreased to the level of the strain containing empty vector

SMILES: C[C@@H](O)[C@H]1C(=O)N2C(C(=O)O)=C(SCCN=CN)C[C@H]12 [Imipenem]
- Carbapenem MIC Alone [1]: Z (MIC of greater than 10 μg/mL)
- Carbapenem MIC Alone [2]: Z (MIC of greater than 10 μg/mL)
- Carbapenem MIC Alone [3]: Z (MIC of greater than 10 μg/mL)
- Carbapenem MIC Alone [4]: Z (key: X: MIC of less than 1 μg/mL; Y: MIC of 1 μg/mL to 10 μg/mL; Z: MIC of greater than 10 μg/mL)
- Carbapenem MIC Alone [5]: Z (MIC of greater than 10 μg/mL)
- Carbapenem MIC Alone [6]: Z (MIC of greater than 10 μg/mL)
- Carbapenem MIC Alone [7]: Z (MIC of greater than 10 μg/mL)
- Carbapenem MIC Alone [8]: Y (MIC of 1 μg/mL to 10 μg/mL)
- Carbapenem MIC Alone [9]: Z (key: X: MIC of less than 1 μg/mL; Y: MIC of 1 μg/mL to 10 μg/mL; Z: MIC of greater than 10 μg/mL)
- Imipenem MIC Alone [16]: Y (key: X: MIC of less than 1.0 μg/mL; Y: MIC of 1.0 μ/mL or above)
- Carbapenem MIC Alone [10]: Y (MIC of 1 μg/mL to 10 μg/mL)
- Carbapenem MIC Alone [11]: Z (MIC of greater than 10 μg/mL)
- MIC [21]: < 1 µg/mL
- Carbapenem MIC Alone [12]: Z (MIC of greater than 10 μg/mL)
- MIC [13]: 1 to 10 µg/mL (≈ 3.34 to 33.4 µM)
- MIC ([13]; Klebsiella aerogenes): > 10 µg/mL
- Imipenem MIC Alone [20]: Y (key: X: MIC of less than 1.0 μg/mL; Y: MIC of 1.0 μ/mL or above)
